Here are results for one molecule from BindingDB's records for PubMed 34214508 (Roche Innovation Center Shanghai, 2021).

The assay is described as follows: Inhibition of mouse TNF-alpha in mouse L929 cells incubated for 18 hrs by CellTitreGlo assay.

`Cc1ccc(C)c(Cn2c(C(O)c3ccncc3)nc3ccc(-c4cnn(C)c4)cc32)c1` (stereo unspecified) came in with an IC50 of 125 nM.

In general, IC50 refers to the midpoint of a concentration-inhibition curve.
